Experimental data reported in patent US20190249218A1, “Method, Medium and Kit for Detecting Multiple Aminoglycoside Resistance Including 16S rRNA Methylase Mediated Resistance in Gram-Negative Bacteria” (priority 2016, published 2019).

Columns and labels:
Assay in all cases: MIC by broth microdilution
[1] = system: S. marcescens; assay type: cell-based, Serratia marcescens; settings: AAC(3)-I
Experimental: (§1) MICs of amikacin and gentamicin were determined using the broth microdilution method in cation-adjusted Mueller-Hinton broth, as recommended by the Clinical Laboratory Standard Institute (CLSI) guidelines (8). Amikacin and gentamicin sulfate (Fluorochem, Dertbyshire, UK) were tested over a range of dilutions from 0.25 to 256 μg/ml. A final inoculum of 5.10^5 CFU/ml of each strain was distributed in the 96 wells tray (Sarstedt, Ntimbrecht, Germany). All experiments were repeated in triplicate and E. coli ATCC 25922 was used as quality control. According to the CLSI breakpoints (9), Enterobacteriaceae isolates with gentamicin MICs≤4 and amikacin MICs≤16 mg/L were categorized as susceptible, while those with gentamicin MICs≥16 and amikacin MICs≥64 mg/L were categorized as resistant.
(§2) MICs of amikacin and gentamicin were determined as described above in Example 1.

[2] = system: K. pneumoniae; assay type: cell-based, Klebsiella pneumoniae
Experimental: as §1, §2

[3] = system: E. coli; assay type: cell-based, Escherichia coli
Experimental: as §1, §2

[4] = system: P. stuartii; assay type: cell-based, Providencia stuartii
Experimental: as §1, §2

[5] = system: E. cloacae; assay type: cell-based, Enterobacter cloacae
Experimental: as §1, §2

[6] = system: P. rettgeri; assay type: cell-based, Providencia rettgeri; settings: AAC(2′)
Experimental: as §1, §2

[7] = system: A. baumannii; assay type: cell-based, Acinetobacter baumannii
Experimental: as §1, §2

[8] = isolate 1800, K. pneumoniae, AAC(6′)-I + AAC(3)-I
[9] = isolate 13000, K. pneumoniae, APH(3′)-I + AAC(3)-V
[10] = isolate 22233, K. pneumoniae, AAC(3)-V
[11] = isolate N34, K. pneumoniae, rmtC
[12] = isolate R108, K. pneumoniae, armA
[13] = isolate R347, K. pneumoniae, AG susceptible
[14] = isolate R500, K. pneumoniae, armA
[15] = isolate R502, K. pneumoniae, rmtF
[16] = isolate R2160, K. pneumoniae, rmtG
[17] = isolate R2257, K. pneumoniae, armA
[18] = isolate S155, K. pneumoniae, AG susceptible
[19] = isolate 92/31, E. coli, AAC(3)-IV
[20] = isolate 1488, E. coli, AAC(6′)-II
[21] = isolate 4000, E. coli, APH(3′)-I + AAC(3)-V
[22] = isolate FR136, E. coli ATCC 25922, AG susceptible
[23] = isolate R1436, E. coli, AG susceptible
[24] = isolate R1438, E. coli, AG susceptible
[25] = isolate R2278, E. coli ATCC 35218, AG susceptible
[26] = isolate R4100, E. coli TOP10, npmA
[27] = isolate RP4, E. coli, APH(3′)-Ib
[28] = isolate pFCT1163, E. coli, AAC(6′)-Ia
[29] = isolate pFCT4392, E. coli, AAC(3)-Ia
[30] = isolate BM2667, P. stuartii, APH(3′)-VI + AAC(2′)
[31] = isolate R265, P. stuartii, rmtC
[32] = isolate 1110, E. cloacae, ANT(2″)
[33] = isolate HM, E. cloacae, AG susceptible
[34] = isolate R713, E. cloacae, AG susceptible
[35] = isolate R1433, E. cloacae, AG susceptible
[36] = isolate R2258, E. cloacae, armA

With Gentamicin the “Gentamicin Phenotype” value ([1]; isolate 4290, S. marcescens) was “R (gentamicin MICs≥16)”, the MIC ([1]; isolate 4290, S. marcescens) was 64 µg/mL and the MIC ([1]; strain 4290, S. marcescens) was 64 µg/mL. For the same substance, the “Gentamicin Phenotype” value [2, 8] was “R (gentamicin MICs≥16)”, the MIC [2, 8] was 16 µg/mL and the “Gentamicin Phenotype” value [2, 9] was “R (gentamicin MICs≥16)”. For the same substance, the MIC [2, 9] was 128 µg/mL, the “Gentamicin Phenotype” value [2, 10] was “R (gentamicin MICs≥16)” and the MIC [2, 10] was 128 µg/mL. The “Gentamicin Phenotype” value [2, 11] was “R (gentamicin MICs≥16)”, the MIC [2, 11] was >256 µg/mL and the “Gentamicin Phenotype” value [2, 12] was “R (gentamicin MICs≥16)”. The MIC [2, 12] was >256 µg/mL, the “Gentamicin Phenotype” value [2, 13] was “S (gentamicin MICs≤4)” and the MIC [2, 13] was 0.5 µg/mL. The “Gentamicin Phenotype” value [2, 14] was “R (gentamicin MICs≥16)”, the MIC [2, 14] was >256 µg/mL and the “Gentamicin Phenotype” value [2, 15] was “R (gentamicin MICs≥16)”. For the same substance, the MIC [2, 15] was >256 µg/mL, the “Gentamicin Phenotype” value [2, 16] was “R (gentamicin MICs≥16)” and the MIC [2, 16] was >256 µg/mL. The “Gentamicin Phenotype” value [2, 17] was “R (gentamicin MICs≥16)”, the MIC [2, 17] was >256 µg/mL and the “Gentamicin Phenotype” value [2, 18] was “S (gentamicin MICs≤4)”. The MIC [2, 18] was 0.5 µg/mL, the MIC ([2]; strain 1800, K. pneumoniae, AAC(6′)-I + AAC(3)-I) was 16 µg/mL and the MIC ([2]; strain 13000, K. pneumoniae, APH(3′)-I + AAC(3)-V) was 128 µg/mL. For the same substance, the MIC ([2]; strain 22233, K. pneumoniae, AAC(3)-V) was 128 µg/mL, the MIC ([2]; strain N34, K. pneumoniae, rmtC) was >256 µg/mL and the MIC ([2]; strain R108, K. pneumoniae, armA) was >256 µg/mL. The MIC ([2]; strain R347, K. pneumoniae, susceptible) was 0.5 µg/mL, the MIC ([2]; strain R500, K. pneumoniae, armA) was >256 µg/mL and the MIC ([2]; strain R502, K. pneumoniae, rmtF) was >256 µg/mL. The MIC ([2]; strain R2160, K. pneumoniae, rmtG) was >256 µg/mL, the MIC ([2]; strain R2257, K. pneumoniae, armA) was >256 µg/mL and the MIC ([2]; strain S155, K. pneumoniae, susceptible) was 0.5 µg/mL. For the same substance, the “Gentamicin Phenotype” value ([3]; isolate 62Carb, E. coli, rmtB) was “R (gentamicin MICs≥16)”, the “Gentamicin Phenotype” value [3, 19] was “R (gentamicin MICs≥16)” and the MIC [3, 19] was 16 µg/mL. The “Gentamicin Phenotype” value ([3]; isolate 97, E. coli, AAC(3)-IV) was “R (gentamicin MICs≥16)”, the MIC ([3]; isolate 97, E. coli, AAC(3)-IV) was 32 µg/mL and the “Gentamicin Phenotype” value ([3]; isolate 390, E. coli, AAC(3)-IV) was “R (gentamicin MICs≥16)”. For the same substance, the MIC ([3]; isolate 1054 (first entry), E. coli, AAC(6′)-I) was 8 µg/mL, the MIC ([3]; isolate 1054 (second entry), E. coli, AAC(6′)-I) was 8 µg/mL and the “Gentamicin Phenotype” value [3, 20] was “R (gentamicin MICs≥16)”. The MIC [3, 20] was 16 µg/mL, the “Gentamicin Phenotype” value [3, 21] was “R (gentamicin MICs≥16)” and the MIC [3, 21] was 64 µg/mL. For the same substance, the “Gentamicin Phenotype” value ([3]; isolate 22089, E. coli, AAC(3)-I + AAC(3)-V) was “R (gentamicin MICs≥16)”, the “Gentamicin Phenotype” value ([3]; isolate 122971, E. coli, ANT(2″)) was “R (gentamicin MICs≥16)” and the “Gentamicin Phenotype” value ([3]; isolate E28, E. coli, rmtB) was “R (gentamicin MICs≥16)”. The “Gentamicin Phenotype” value [3, 22] was “S (gentamicin MICs≤4)”, the MIC [3, 22] was 0.5 µg/mL and the “Gentamicin Phenotype” value ([3]; isolate R107, E. coli, rmtB) was “R (gentamicin MICs≥16)”. For the same substance, the “Gentamicin Phenotype” value ([3]; isolate R262, E. coli, rmtC) was “R (gentamicin MICs≥16)”, the “Gentamicin Phenotype” value ([3]; isolate R451, E. coli, rmtC) was “R (gentamicin MICs≥16)” and the “Gentamicin Phenotype” value ([3]; isolate R989, E. coli, armA) was “R (gentamicin MICs≥16)”. For the same substance, the “Gentamicin Phenotype” value ([3]; isolate R990, E. coli, rmtB) was “R (gentamicin MICs≥16)”, the “Gentamicin Phenotype” value ([3]; isolate R1012, E. coli, armA) was “R (gentamicin MICs≥16)” and the “Gentamicin Phenotype” value [3, 23] was “S (gentamicin MICs≤4)”. The MIC [3, 23] was 1 µg/mL, the “Gentamicin Phenotype” value [3, 24] was “S (gentamicin MICs≤4)” and the MIC [3, 24] was 1 µg/mL. The “Gentamicin Phenotype” value [3, 25] was “S (gentamicin MICs≤4)”, the MIC [3, 25] was 1 µg/mL and the “Gentamicin Phenotype” value [3, 26] was “R (gentamicin MICs≥16)”. For the same substance, the MIC [3, 26] was 64 µg/mL, the “Gentamicin Phenotype” value [3, 27] was “S (gentamicin MICs≤4)” and the MIC [3, 27] was 1 µg/mL. The “Gentamicin Phenotype” value [3, 28] was “S (gentamicin MICs≤4)”, the MIC [3, 28] was 4 µg/mL and the “Gentamicin Phenotype” value [3, 29] was “R (gentamicin MICs≥16)”. The MIC [3, 29] was 32 µg/mL, the “Gentamicin Phenotype” value ([3]; isolate pWP701, E. coli, AAC(3)-IV) was “R (gentamicin MICs≥16)” and the MIC ([3]; strain 92/31, E. coli, AAC(3)-IV) was 16 µg/mL. It also gave an MIC ([3]; strain 97, E. coli, AAC(3)-IV) of 32 µg/mL, an MIC ([3]; strain 1054a, E. coli, AAC(6′)-I) of 8 µg/mL and an MIC ([3]; strain 1054b, E. coli, AAC(6′)-I) of 8 µg/mL. It also gave an MIC ([3]; strain 1488, E. coli, AAC(6′)-II) of 16 µg/mL, an MIC ([3]; strain 4000, E. coli, APH(3′)-I + AAC(3)-V) of 64 µg/mL and an MIC ([3]; strain R1436, E. coli, susceptible) of 1 µg/mL. For the same substance, the MIC ([3]; strain R1438, E. coli, susceptible) was 1 µg/mL, the MIC ([3]; strain R2278, E. coli ATCC 35218, susceptible) was 1 µg/mL and the MIC ([3]; strain R2298, E. coli ATCC 25922, susceptible) was 1 µg/mL. The MIC ([3]; strain R4100, E. coli, npmA) was 258 µg/mL, the MIC ([3]; strain RP4, E. coli, APH(3′)-Ib) was 2 µg/mL and the MIC ([3]; strain pFCT1163, E. coli, AAC(6′)-Ia) was 4 µg/mL. The MIC ([3]; strain pFCT4392, E. coli, AAC(3)-Ia) was 32 µg/mL, the “Gentamicin Phenotype” value [4, 30] was “S (gentamicin MICs≤4)” and the MIC [4, 30] was 8 µg/mL. For the same substance, the “Gentamicin Phenotype” value ([4]; isolate R38, P. stuartii, rmtC) was “R (gentamicin MICs≥16)”, the MIC ([4]; isolate R38, P. stuartii, rmtC) was >256 µg/mL and the “Gentamicin Phenotype” value [4, 31] was “R (gentamicin MICs≥16)”. For the same substance, the MIC [4, 31] was >256 µg/mL, the MIC ([4]; strain BM2667, P. stuartii, APH(3′)-VI + AAC(2′)) was 16 µg/mL and the MIC ([4]; strain R38, P. stuartii, rmtC) was >256 µg/mL. For the same substance, the MIC ([4]; strain R265, P. stuartii, rmtC) was >256 µg/mL, the “Gentamicin Phenotype” value [5, 32] was “R (gentamicin MICs≥16)” and the MIC [5, 32] was 32 µg/mL. The “Gentamicin Phenotype” value [5, 33] was “S (gentamicin MICs≤4)”, the MIC [5, 33] was 2 µg/mL and the “Gentamicin Phenotype” value [5, 34] was “S (gentamicin MICs≤4)”. For the same substance, the MIC [5, 34] was 0.5 µg/mL, the “Gentamicin Phenotype” value [5, 35] was “S (gentamicin MICs≤4)” and the MIC [5, 35] was 2 µg/mL. For the same substance, the “Gentamicin Phenotype” value [5, 36] was “R (gentamicin MICs≥16)”, the MIC [5, 36] was >256 µg/mL and the MIC ([5]; strain 1110, E. cloacae, ANT(2″)) was 32 µg/mL. It also gave an MIC ([5]; strain HM, E. cloacae, susceptible) of 2 µg/mL, an MIC ([5]; strain R713, E. cloacae, susceptible) of 0.5 µg/mL and an MIC ([5]; strain R1433, E. cloacae, susceptible) of 2 µg/mL. For the same substance, the MIC ([5]; strain R2258, E. cloacae, armA) was >256 µg/mL, the “Gentamicin Phenotype” value ([6]; isolate 531, P. rettgeri) was “S (gentamicin MICs≤4)” and the MIC ([6]; isolate 531, P. rettgeri) was 4 µg/mL. The MIC ([6]; strain 531, P. rettgeri) was 4 µg/mL, the MIC ([7]; strain 4996, A. baumannii, AAC(6′)-I) was 4 µg/mL and the MIC ([7]; strain 8541, A. baumannii, APH(3′)-VI) was 0.5 µg/mL. For the same substance, the MIC ([7]; strain BM2580, A. baumannii, APH(3′)-VI) was 2 µg/mL, the MIC ([7]; strain R264, A. baumannii, armA) was >256 µg/mL and the MIC ([7]; strain R1395, A. baumannii, susceptible) was 1 µg/mL.
